In publication PMC10783087 (Microbiology Spectrum, 2023):
In brackets after ≈: the same amount, converted by molar mass. Several values for one entry are separate records, joined by “and”; a condition that tells them apart may be missing. Identical values can stand only once. Like-named read-outs stand apart in the source and are kept apart here.

Legend:
[1] = system: M. avium ATC 700891 (MAC 101); test: In vitro MIC against NTM, microbroth dilution; type: cell-based; conditions: 7 days; for MIC: Mycobacterium avium, 168 h
in vitro [2] = conditions: mouse
[3] = system: Mtb CDC1551 FFluc reporter strain in primary bone marrow-derived macrophages; test: microbe, parasite or virus in culture; type: cell-based; conditions: Mycobacterium tuberculosis, Macrophage; for EC90: read-out: ex vivo EC90
[4] = system: primary bone marrow-derived macrophages (BMMΦ); conditions: for S.I. (CC50 / EC50): BMMΦ CC50 / ex vivo EC50, Table S1; for Si (CC50/EC50): macrophage CC50 / in vitro Mtb EC50
Erdman = test: microbe, parasite or virus in culture; type: cell-based; conditions: Mycobacterium tuberculosis
in vitro [5] = type: cell-based; conditions: human, 24 h treatment
Procedure: For additional cell lines including HepG2, HeLa, and THP-1, the following protocol was used. HepG2 (ATCC HB-8065) and HeLa (ATCC CCL-2) were cultured in cEMEM supplemented with 10% (vol/vol)/FBS and 1%(vol/vol) PenStrep. THP-1 cells were cultured in cRPMI-1640 medium (ATCC 30-2001) supplanted with 10% (vol/vol) FBS and 0.05 mM 2-mercaptoethanol (Sigma M3148). THP-1 cells were seeded in 96 well plates at 1 × 10^5 cells/mL with complete medium. HepG2 and HeLa cells were seeded in 96 well plates with cEMEM at 1 × 10^6 cells/mL. Cells were treated with compounds by dose response in a range of 128–0.48 µg/mL in triplicate or mitomycin C at a range of 128–0.0625 µM. Cells were treated for 24 h at 37°C with 5% CO2. Cells were then treated with either MTT or resazurin for 4 h. Absorbance was then measured at 570 nm for MTT plates. Percent cytotoxicity was calculated relative to positive mitomycin C and untreated controls. Percent cytotoxicity was used to calculate the IC50 using Graphpad prism software using non-linear regression analysis.

H37Rv = test: microbe, parasite or virus in culture; type: cell-based; conditions: Mycobacterium tuberculosis
Mtb [6] = test: microbe, parasite or virus in culture; type: cell-based, Mycobacterium tuberculosis; conditions: for EC50: read-out: In vitro EC50; for EC90: read-out: In vitro EC90
M. abscessus ATCC 19977 = test: In vitro MIC against NTM, microbroth dilution; type: cell-based; conditions: 7 days
H37Rv (ΔkatG) = type: cell-based
[7] = type: in vivo, female C57Bl/6 mice; conditions: 200 mg/kg oral in corn oil
Procedure: Female C57Bl/6 mice were dosed with 200 mg/kg (based on the average body mass of 27 mice) of MSU-43085, MSU-43165, or MSU-43170 formulated in corn oil by oral gavage. At 1-, 2-, and 4-h post treatment, blood samples were taken from three mice from each treatment group by cardiac puncture and placed in BD Lithium HeparinN Vacutainer tubes. Plasma was separated from whole blood by centrifuge, and compounds were methanol extracted. Lungs were harvested from mice 4- h post treatment. Lung samples were homogenized using a closed tissue grinder system (Fisherbrand—02-542-09), and compounds were methanol extracted from lung homogenates. Methanol-extracted samples were quantified by UPLC/MS/MS.

[8] = type: in vitro ADME, mouse
Procedure: The mouse microsomal stability assay was conducted as described by Obach ([57]), and the results are presented as the percentages remaining after 30 min. Values greater than 100% are likely due to changes in the solubility of the compounds over the course of the assay and represent high stability in microsomes.

physchem = type: physicochemical; conditions: aqueous buffer, kinetic from dmso stock
Procedure: The kinetic solubility assay was conducted as previously described ([18]). Briefly, using methods described by Bevan and Lloyd ([56]), the assay was performed with 7-point (twofold) dilutions of the compounds, from 200 to 3.125 μM along with mebendazole, bexarotene, and aspirin as controls. The drug dilutions were added to PBS, pH 7.4, with a DMSO concentration of 1% (final), and incubated at 37°C for 2 h. The absorbance at 620 nm was measured for each drug dilution to estimate the solubility of the compound in triplicate/ dilution.

Mtb Erdman = type: in vivo, Mycobacterium tuberculosis
Mtb [9] = conditions: cited from earlier work
[10] = intracellular Mtb in BMMΦ, Table S1, read-out: ex vivo EC50
[11] = intracellular Mtb in BMMΦ, Table S1
[12] = read-out: HeLa Cytotoxicity (IC50)
[13] = read-out: HepG2 Cytotoxicity (IC50)
[14] = read-out: THP-1 Cytotoxicity (IC50)
[15] = Mycobacterium tuberculosis, 144 h
[16] = read-out: intra-macrophage EC50
[17] = Table S5, % remaining after 30 minutes with mouse microsomes
[18] = mouse microsomes, % remaining after 30 min
[19] = 37 °C, PBS pH 7.4, read-out: Kinetic solubility pH 7.4
[20] = PBS pH 2.0, read-out: Kinetic solubility pH 2.0

## Cc1cc2nc(SCC(=O)N(C(C)C)C(C)C)[nH]c2cc1C [MSU-42766]
[1]
  In vitro MIC, M. avium ATC 700891 (MAC 101): no detectable activity
  MIC: > 200 µM
In vitro [2]
  CC50: > 80000 nM
[3]; [10]
  EC50: 410 nM
[3]; [11]
  EC90: 970 nM
[4]
  S.I. (CC50 / EC50): > 195.6
  Si (CC50/EC50): >61
Erdman
  EC50: 1300 nM
In vitro [5]; [12]
  IC50: > 128 µg/mL
In vitro [5]; [13]
  IC50: > 128 µg/mL
In vitro [5]; [14]
  IC50: 39.6 µg/mL (≈ 124 µM)
H37Rv; read-out: MIC, H37Rv
  MIC: 1.5 µM
H37Rv; read-out: activity (MIC) against WT
  MIC: 0.5 µg/mL
Mtb [6]; [15]
  EC50: 1300 nM
  EC90: 8200 nM
M. abscessus ATCC 19977
  MIC: 12 µM (≈ 3.83 µg/mL)
M. abscessus ATCC 19977; Mycobacteroides abscessus, ATCC19977, 168 h
  MIC: 12 µM (≈ 3.83 µg/mL)
H37Rv (ΔkatG)
  MIC, H37Rv (ΔkatG): 1.5 µM (≈ 0.479 µg/mL)

## CC(C)N(C(=O)CNc1nc2cc(Cl)c(Cl)cc2[nH]1)C(C)C [MSU-43165]
In vitro [2]
  CC50: > 80000 nM
[3]; [10]
  EC50: 130 nM
[3]; [11]
  EC90: 150 nM
[3]; [16]
  EC50: 134 nM
[7]; 1 h
  Blood plasma concentration (1 h, fold EC50): 1.3 fold EC50 and 1.3× fold EC50
[4]
  S.I. (CC50 / EC50): > 596.6
  Si (CC50/EC50): >210
[8]; [17]
  Microsome Stability: 106%
[8]; [18]
  Microsome Stability: 106%
physchem; [19]
  solubility kinetic: > 150 µM
physchem; [20]
  solubility kinetic: > 300 µM
Mtb [6]; [15]
  EC50: 380 nM
  EC90: 628 nM
Mtb [6]
  EC90: 630 nM
Mtb Erdman; 200 mg/kg oral, 2 weeks, not significant (P > 0.99)
  absolute difference of the median lung burden vs vehicle control: 1.6 × 10^4 CFUs/mL
Mtb Erdman; C57Bl/6 mice, oral gavage 2 weeks, INH 25 mg/kg, MSU compounds 200 mg/kg
  median lung bacterial burden: 5.7 × 10^3 CFUs/mL
Mtb Erdman; […], INH 25 mg/kg, MSU compounds 200 mg/kg
  colonies in spleens (dissemination): colonies could also be detected

## CC(C)N(C(=O)COc1nc2cc(Cl)c(Cl)cc2[nH]1)C(C)C [MSU-43170]
In vitro [2]
  CC50: > 80000 nM
[3]; [11]
  EC90: 140 nM
[3]; [16]
  EC50: 35 nM
[7]; 2 h time point (1 h unavailable)
  Blood plasma concentration (2 h, fold EC50): 4 fold EC50 and 4× ^ a fold EC50
[4]
  S.I. (CC50 / EC50): > 2285
  Si (CC50/EC50): >667
[8]; [17]
  Microsome Stability: 95%
[8]; [18]
  Microsome Stability: 95%
physchem; [19]
  solubility kinetic: > 50 µM
physchem; [20]
  solubility kinetic: > 300 µM
Mtb [6]; [15]
  EC50: 116 nM
  EC90: 263 nM
Mtb [6]
  EC50: 120 nM
  EC90: 260 nM

## CO[C@@]12[C@H](COC(N)=O)C3=C(C(=O)C(C)=C(N)C3=O)N1C[C@@H]1N[C@@H]12 [Mitomycin C, reference compound]
In vitro [5]; [12]
  IC50: 10.5 µg/mL (≈ 31.5 µM)
In vitro [5]; [13]
  IC50: 23 µg/mL (≈ 68.8 µM)
In vitro [5]; [14]
  IC50: 3.09 µg/mL (≈ 9.25 µM)

## COc1c(N2C[C@@H]3CCCN[C@@H]3C2)c(F)cc2c(=O)c(C(=O)O)cn(C3CC3)c12 [Moxifloxacin]
H37Rv; read-out: MIC, H37Rv
  MIC: 0.15 µM
H37Rv (ΔkatG)
  MIC, H37Rv (ΔkatG): 0.15 µM (≈ 0.0602 µg/mL)

## CC1(C)CCC(NC(=O)c2cc3c(Cl)cc(Cl)cc3[nH]2)CC1 [NITD-304]
Mtb [9]
  MIC: 0.02 µM (≈ 0.00679 µg/mL)

## CC1(C)CCC(NC(=O)c2cc3c(F)cc(F)cc3[nH]2)CC1 [NITD-349]
Mtb [9]
  MIC: 0.03 µM (≈ 0.00919 µg/mL)

## CO[C@H]1/C=C/O[C@@]2(C)Oc3c(C)c(O)c4c(O)c(c(/C=N/N5CCN(C)CC5)c(O)c4c3C2=O)NC(=O)/C(C)=C\C=C\[C@H](C)[C@H](O)[C@@H](C)[C@@H](O)[C@@H](C)[C@H](OC(C)=O)[C@@H]1C [Rifampicin]
[1]
  MIC: 0.07 µM (≈ 0.0576 µg/mL)
